Laboratory results published in PubChem BioAssay (NCI).
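Assay format: 96-well plates, 48-hour exposure. GI50 = concentration required for 50% inhibition of growth. TGI: total growth inhibition.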

Test system: MDA-MB-468 breast
Assay: NCI tumour cell line growth inhibition, 48 h

Row | SMILES | GI50 | TGI
1 | Nc1nc2c(c3ncncc13)C(c1cccc(C(F)(F)F)c1)Cc1ncncc1-2 (configuration not stated) | 2.78 µM | 8.89 µM
2 | CC[C@@H](C(=O)O)C1CC[C@H](C)C([C@@H](C)[C@H](O)[C@H](C)C(=O)[C@H](CC)C2O[C@]3(C=C[C@@H](O)[C@]4(CC[C@@](C)(C5CC[C@](O)(CC)[C@H](C)O5)O4)O3)[C@H](C)C[C@@H]2C)O1 (some centres not stated) | 0.292 µM | 4.34 µM
3 | NCCOCCOCCNc1nc(Cc2ccccc2)nc(NCCCN2CCCC2=O)n1 | > 100 µM | > 100 µM
4 | COc1cc(/C=C/c2cc(O)c3cc(C(C)=O)c(=O)oc3c2)cc2c1O[C@]1(C)CC[C@@H](O)C(C)(C)[C@H]1C2 | 3.87 µM | 20.5 µM
5 | CC#C[C@]1(O)CC[C@H]2[C@@H]3CCC4=CC(=O)CCC4=C3[C@@H](c3ccc4c(c3)OCO4)C[C@@]21C | 101 µM | 559 µM
6 | O=c1cc(-c2ccccc2)[nH]c2ccccc12 | 0.481 µM | 
7 | CN1CCC(n2cnc(-c3ccc(F)cc3)c2-c2ccnc(NCCO)n2)CC1 | 10 µM | > 25 µM
8 | CCc1nccc2c1nc(-c1nonc1N)n2CC | > 25 µM | > 25 µM
9 | COc1ccc2sc3c(NCCCN(C)C)nc4ccccc4c3c(=O)c2c1 | 1.62 µM | 3.21 µM
10 | N=C(N)c1ccc(-c2ccc(-c3cc(Cl)cc(Cl)c3)o2)nc1 | 1.69 µM | 3.29 µM
11 | COC(=O)[C@@]1(C)CC[C@]2(C)CC[C@]3(C)C4=CC=C5C(=CC(=O)C(O)=C5C)[C@]4(C)[C@@H](O)C[C@@]3(C)[C@@H]2C1 | 9.71 µM | 21.9 µM
12 | COC(=O)[C@H](C[C@H](Cc1ccccc1)NC(=O)c1csc([C@@H](C[C@H](C(C)C)N(C)C(=O)[C@@H](NC(=O)[C@H]2CCCCN2C)C(C)C)OC(C)=O)n1)NC(=O)OCc1ccccc1 | < 0.0009 µM | < 0.0009 µM
13 | OC(c1cc(-c2ccccc2)nc2ccc(Cl)cc12)C1CCCCN1 (configuration not stated) | 2.01 µM | 3.86 µM
14 | O=C(O)/C=C\C(=O)N1C/C(=C\c2ccccc2Cl)C(=O)/C(=C/c2ccccc2Cl)C1 | 1.54 µM | 3.46 µM
15 | CC(C)C[C@H]1C(=O)O[C@H](C(C)C)C(=O)N(C)[C@@H](C(C)C)C(=O)O[C@H](C(C)C)C(=O)N(C)[C@@H](C(C)C)C(=O)O[C@H](C(C)C)C(=O)N1C | 2.01 µM | 9.35 µM
16 | COc1ccc2c(c1)cn1c3ccc(O)cc3nc(N)c21 | 0.747 µM | 4.73 µM
17 | CCN(CC)CC(C)Nc1ccc([N+](=O)[O-])c2sc3ccccc3c(=O)c12 (configuration not stated) | 1.81 µM | 5.79 µM
18 | COc1cc(C2CC(c3ccc4c(c3)OCO4)=NN2C=O)cc(OC)c1OC (configuration not stated) | 2.05 µM | 6.81 µM
19 | COc1ccc2nc(-c3ccc(-c4noc(-c5cc(OC)c(OC)c(OC)c5)n4)cc3)[nH]c2c1 | 6.54 µM | 26.3 µM
20 | C=CCOc1cccc(/C=C2\SC(=Nc3ccc(O)cc3)NC2=O)c1 | 0.416 µM | 4.17 µM
21 | COc1ccc(-c2c3c(N)nc(-c4ccncc4)nc3nc3c2c(C)nn3-c2ccccc2)cc1 | 7.75 µM | > 100 µM
22 | COc1cccc2c1c(C(=O)C(=O)Nc1cc(C)no1)cn2Cc1ccc(F)cc1 | 2.42 µM | 17.7 µM
23 | COc1ccc(/C(=C2/O[C@@H]([C@H]3COC(C)(C)O3)[C@H]3OC(C)(C)O[C@@H]23)c2cc(OC)c(OC)c(OC)c2)cc1O | 25.6 µM | 63.6 µM
24 | OC1CCN(CCCOc2c3ccc(Cl)cc3nc3c2oc2ccc(Cl)cc23)CC1 | 1.82 µM | 7.88 µM
25 | Cc1ccccc1[P+](Cc1ccccc1)(c1ccccc1)c1ccccc1 | 0.367 µM | 4 µM
26 | O=C1c2cccnc2C(=O)c2nc3cc(N4CCN(C5CC5)CC4)ccc3nc21 | 1.68 µM | 4.03 µM
27 | COc1cc2c(c(OC)c1)C1c3ccccc3NC(=O)N1CC2 (configuration not stated) | 2.55 µM | 8.57 µM
28 | COc1ccc(-c2csc(N(C(=O)N3CCN(c4cc5c(cc4F)c(=O)c(C(=O)O)cn5C4CC4)CC3)c3ccccc3)n2)cc1 | 2.55 µM | 8.74 µM
29 | Cn1cc(-c2ccc3occ(-c4cccc(-c5ccncc5)c4)c3n2)cn1 | 0.24 µM | 0.941 µM
